Source: patent US20150105252A1, “SUBSTITUTED PYRAZOLES AS HERBICIDES” (E I DU PONT DE NEMOURS AND COMPANY, priority 2013, published 2015)

Experiments:
soybean [1] = test: Test C preemergence; type: in vivo, Glycine max
Outline: (§1)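 Visual rating, 0–100 scale (0 no effect, 100 complete control), vs untreated controls after 13–15 d greenhouse. Pre: seeds in loam/sand, treated at sowing. Post: plants in peat-based mix, 1- to 4-leaf (2–18 cm). Solvent + surfactant formulation, non-phytotoxic.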

crabgrass, large = test: Test A preemergence; type: in vivo, Digitaria sanguinalis; conditions: preemergence
Outline: (§2)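 Injury readout: eye-scored versus untreated controls, 0 to 100. Exposure period: ~10 days, greenhouse. Application: soil-directed spray over sown seed (pre) or spray on seedlings 2–10 cm tall with one or two leaves (post), compound carried in non-phytotoxic solvent including surfactant.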

waterhemp = test: Test C preemergence; type: in vivo, Amaranthus rudis
Outline: as §1

oilseed rape = test: Test C postemergence; type: in vivo, Brassica napus
Outline: as §1

ragweed [2] = test: Test C preemergence; type: in vivo, Ambrosia elation
Outline: as §1

morningglory = test: Test A postemergence; type: in vivo, Ipomoea spp.
Outline: as §2

johnsongrass = test: Test C postemergence; type: in vivo, Sorghum halepense
Outline: as §1

nutsedge, yellow = test: Test C postemergence; type: in vivo, Cyperus esculentus
Outline: as §1

velvetleaf = test: Test C preemergence; type: in vivo, Abutilon theophrasti
Outline: as §1

wheat = test: Test A preemergence; type: in vivo, Triticum aestivum; conditions: preemergence
Outline: as §2

soybean [3] = test: Test C postemergence; type: in vivo, Glycine max
Outline: as §1

ragweed [4] = test: Test C postemergence; type: in vivo, Ambrosia elation
Outline: as §1

ryegrass, Italian = test: Test C postemergence; type: in vivo, Lolium multiflorum
Outline: as §1

corn = test: Test C postemergence; type: in vivo, Zea mays
Outline: as §1

foxtail, giant = test: Test C postemergence; type: in vivo, Setaria faberii
Outline: as §1

barnyardgrass = test: Test C preemergence; type: in vivo, Echinochloa crus-galli
Outline: as §1

[5] = preemergence, 31 g ai/ha, visual rating, scale 0 to 100 (0 no effect, 100 complete control), 13 to 15 days
[6] = preemergence, 62 g ai/ha, 13 to 15 days, scale 0 to 100, 0 = no effect, 100 = complete control
[7] = preemergence, 125 g ai/ha, scale 0 to 100, 0 is no effect, 100 is complete control
[8] = 125 g ai/ha, visual injury, 0 to 100 scale, approx. 10 days
[9] = 500 g ai/ha, visual injury after approx. 10 days, 0 to 100 scale (0 no effect, 100 complete control)
[10] = Postemergence, 31 g ai/ha, visually evaluated after 13 to 15 days
[11] = postemergence, 62 g ai/ha, scale 0 to 100
[12] = postemergence, 250 g ai/ha, scale 0 to 100 (0 no effect, 100 complete control)
[13] = postemergence, 125 g ai/ha, scale 0 to 100, 0 no effect, 100 complete control

## CCCc1cc(C(=O)NCC)nn1Cc1ccnc(C(F)(F)F)c1 [Compound 95]
Soybean [1]; Preemergence, 250 g ai/ha
  Plant response rating (scale of 0 to 100), Soybean: 98
Soybean [1]; [5]
  Soybean plant response rating: 80
Soybean [1]; [6]
  Plant response rating, Soybean: 90
Soybean [1]; [7]
  Soybean plant response rating: 95
crabgrass, large; [8]
  Crabgrass, Large plant response rating: 100
crabgrass, large; [9]
  Crabgrass, Large plant response rating: 100
waterhemp; Preemergence, 250 g ai/ha
  Plant response rating (scale of 0 to 100), Waterhemp: 100
waterhemp; [5]
  Waterhemp plant response rating: 100
waterhemp; [6]
  Plant response rating, Waterhemp: 100
waterhemp; [7]
  Waterhemp plant response rating: 100
Oilseed rape; [10]
  Plant response rating (scale of 0 to 100 where 0 is no effect and 100 is complete control), Oilseed Rape: 30
Oilseed rape; [11]
  Oilseed Rape plant response rating: 30
Oilseed rape; [12]
  Plant response rating, Oilseed Rape: 50
Oilseed rape; [13]
  Plant response rating, Oilseed Rape: 50
Ragweed [2]; Preemergence, 250 g ai/ha
  Plant response rating (scale of 0 to 100), Ragweed: 100
Ragweed [2]; [5]
  Ragweed plant response rating: 80
Ragweed [2]; [6]
  Plant response rating, Ragweed: 95
Ragweed [2]; [7]
  Ragweed plant response rating: 100
morningglory; Postemergence, 500 g ai/ha, visual rating after approx. 10 days, 0 to 100 scale (0 no effect, 100 complete control)
  Morningglory plant response rating: 100
morningglory; postemergence, 125 g ai/ha, about 10 days, visual rating on 0 to 100 scale (0 no effect, 100 complete control)
  Morningglory plant response rating: 90
johnsongrass; [10]
  Plant response rating (scale of 0 to 100 where 0 is no effect and 100 is complete control), Johnsongrass: 0
johnsongrass; [11]
  Johnsongrass plant response rating: 0
johnsongrass; [12]
  Plant response rating, Johnsongrass: 30
johnsongrass; [13]
  Plant response rating, Johnsongrass: 5
nutsedge, yellow; [10]
  Plant response rating (scale of 0 to 100 where 0 is no effect and 100 is complete control), Nutsedge, Yellow: 0
nutsedge, yellow; [11]
  Nutsedge, Yellow plant response rating: 0
nutsedge, yellow; [12]
  Plant response rating, Nutsedge, Yellow: 10
nutsedge, yellow; [13]
  Plant response rating, Nutsedge, Yellow: 5
velvetleaf; Preemergence, 250 g ai/ha
  Plant response rating (scale of 0 to 100), Velvetleaf: 100
velvetleaf; [5]
  Velvetleaf plant response rating: 50
velvetleaf; [6]
  Plant response rating, Velvetleaf: 100
velvetleaf; [7]
  Velvetleaf plant response rating: 100
wheat; [8]
  Wheat plant response rating: 70
wheat; [9]
  Wheat plant response rating: 100
Soybean [3]; [10]
  Plant response rating (scale of 0 to 100 where 0 is no effect and 100 is complete control), Soybean: 45
Soybean [3]; [11]
  Soybean plant response rating: 50
Soybean [3]; [13]
  Plant response rating, Soybean: 80
Ragweed [4]; [10]
  Plant response rating (scale of 0 to 100 where 0 is no effect and 100 is complete control), Ragweed: 45
Ragweed [4]; [11]
  Ragweed plant response rating: 50
Ragweed [4]; [12]
  Plant response rating, Ragweed: 85
Ragweed [4]; [13]
  Plant response rating, Ragweed: 50
ryegrass, Italian; [10]
  Plant response rating (scale of 0 to 100 where 0 is no effect and 100 is complete control), Ryegrass, Italian: 5
ryegrass, Italian; [11]
  Ryegrass, Italian plant response rating: 5
ryegrass, Italian; [12]
  Plant response rating, Ryegrass, Italian: 30
ryegrass, Italian; [13]
  Plant response rating, Ryegrass, Italian: 5
corn; [10]
  Plant response rating (scale of 0 to 100 where 0 is no effect and 100 is complete control), Corn: 5
corn; [11]
  Corn plant response rating: 10
corn; [12]
  Plant response rating, Corn: 10
corn; [13]
  Plant response rating, Corn: 10
foxtail, giant; [10]
  Plant response rating (scale of 0 to 100 where 0 is no effect and 100 is complete control), Foxtail, Giant: 5
foxtail, giant; [11]
  Foxtail, Giant plant response rating: 40
foxtail, giant; [12]
  Plant response rating, Foxtail, Giant: 60
foxtail, giant; [13]
  Plant response rating, Foxtail, Giant: 45
barnyardgrass; Preemergence, 250 g ai/ha
  Plant response rating (scale of 0 to 100), Barnyardgrass: 100
barnyardgrass; preemergence, 31 g ai/ha, scale 0 to 100 (0 no effect, 100 complete control), 13 to 15 days
  Barnyardgrass plant response rating: 100
barnyardgrass; [6]
  Plant response rating, Barnyardgrass: 100
barnyardgrass; [7]
  Barnyardgrass plant response rating: 100
